Measurements: PMC12091851, “Replacing a Cereblon Ligand by a DDB1 and CUL4 Associated Factor 11 (DCAF11) Recruiter Converts a Selective Histone Deacetylase 6 PROTAC into a Pan‐Degrader” (Chemmedchem, 2025)

Target: T1, HDAC6 (Homo sapiens, UniProt Q9UBN7)
T1 sequence (Q9UBN7 1-1215): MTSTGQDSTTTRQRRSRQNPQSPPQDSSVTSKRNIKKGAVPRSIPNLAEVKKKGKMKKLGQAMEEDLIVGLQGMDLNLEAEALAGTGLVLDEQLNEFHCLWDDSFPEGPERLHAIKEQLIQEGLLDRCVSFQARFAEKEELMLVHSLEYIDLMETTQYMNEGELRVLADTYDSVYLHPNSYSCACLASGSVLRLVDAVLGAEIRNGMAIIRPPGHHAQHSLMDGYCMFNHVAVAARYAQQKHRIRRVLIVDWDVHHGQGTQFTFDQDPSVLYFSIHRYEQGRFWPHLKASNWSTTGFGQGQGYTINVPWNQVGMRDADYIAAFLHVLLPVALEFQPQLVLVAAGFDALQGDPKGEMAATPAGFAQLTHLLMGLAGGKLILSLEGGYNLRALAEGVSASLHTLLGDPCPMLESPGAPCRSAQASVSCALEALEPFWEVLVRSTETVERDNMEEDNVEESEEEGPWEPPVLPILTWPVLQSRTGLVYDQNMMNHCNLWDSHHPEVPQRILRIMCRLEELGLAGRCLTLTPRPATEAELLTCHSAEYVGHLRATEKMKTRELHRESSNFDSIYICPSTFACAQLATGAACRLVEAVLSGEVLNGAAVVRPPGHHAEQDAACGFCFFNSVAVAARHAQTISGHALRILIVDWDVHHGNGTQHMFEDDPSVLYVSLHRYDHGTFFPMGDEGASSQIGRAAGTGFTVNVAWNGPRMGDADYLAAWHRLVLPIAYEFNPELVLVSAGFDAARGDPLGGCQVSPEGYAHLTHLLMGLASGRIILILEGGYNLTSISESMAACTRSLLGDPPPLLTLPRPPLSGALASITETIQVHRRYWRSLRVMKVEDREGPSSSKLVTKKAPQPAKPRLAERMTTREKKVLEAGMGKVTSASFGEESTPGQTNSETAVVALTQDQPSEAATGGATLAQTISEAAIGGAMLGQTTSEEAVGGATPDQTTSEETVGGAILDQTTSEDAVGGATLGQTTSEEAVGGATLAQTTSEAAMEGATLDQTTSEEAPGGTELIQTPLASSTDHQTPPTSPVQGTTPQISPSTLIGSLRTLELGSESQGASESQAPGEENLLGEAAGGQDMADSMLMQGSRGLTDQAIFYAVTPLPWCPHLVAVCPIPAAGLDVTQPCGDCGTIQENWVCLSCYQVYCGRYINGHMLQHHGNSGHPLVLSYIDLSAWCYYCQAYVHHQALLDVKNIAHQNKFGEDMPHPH
Assay: Simple Western immunoassay, HDAC6 levels in MM.1S cell lysates
Type: cell-based
Set-up: endogenous in cells; host or cells: MM.1S
Details: MM.1S cells, 10 μM; for reduction of HDAC6 protein levels: 24 h
Procedure: Figure 3 Initial degradation screening of HDAC1 and 6 by DCAF11‐recruiting PROTACs by Simple Western™ immunoassay analysis of MM.1S cell lysates. MM.1S cells were treated with the indicated compound (10 μM) or vehicle (DMSO) for 24 h. […] Bottom: Representative images from a total of n=3 biological replicates, labeled with spacer type; w/o: without spacer.
2. Biological Experiments […]
The human multiple myeloma cell line MM.1S (CRL-2974) was obtained from American Type Culture Collection (ATCC, Manassas, VA, USA). The semi-adherent cells were cultivated in RPMI 1640 medium (Catalog#21875-034, Gibco, ThermoFisher Scientific Inc., Waltham, MA, USA) supplemented with 10% FBS (PAN Biotech GmbH; Aidenbach, Germany), 100 IU/mL penicil lin, 0.1 mg/mL streptomycin (PAN Biotech GmbH) and 1 mM sodium pyruvate (ThermoFisher Scientific Inc.). […]
(PAN Biotech GmbH). All cells were cultured at 37 °C in a 5% CO2 atmosphere. Incubation times, as part of assay protocols, were performed under these conditions as well. […]
2.2. Simple Western™ Immunoassay
For the cell lysates, MM.1S (0.5 × 10^6 cells/mL) or U-87MG (0.18 × 10^6 cells/mL) cells were seeded and incubated with the indicated concentration of compound or vehicle (DMSO) for the given time. […]
SDS, 0.5% deoxycholate; Catalog# FNN0011, Thermo Fisher Scientific Inc., Waltham, MA, USA) with addition of Halt Protease Inhibitor Cocktail (100×) (Catalog# 78429, Life Technologies GmbH, Carlsbad, CA, USA) and phenylmethanesulfonyl fluoride (Catalog# 10837091001, Sigma-Aldrich, St.
Louis, MO, USA) according to manufacturer´s instructions. Protein content was determined by Pierce™ BCA Protein Assay Kit (Catalog# 23225, Thermo Fisher Scientific Inc.) according to manufacturer´s guidelines. […]
Fluorescence Separation 8x25 Capillary Cartridges (Catalog# SM-FL004-1, Protein Simple, Bio-Techne, Minneapolis, MN, USA) were used for separation and the Anti-Mouse Detection Module (Catalog# DM-002, Protein Simple) was used for detection with addition of 20x Anti-Rabbit HRP […]
Conjugate (Catalog# 043-426, Protein Simple) according to manufacturer´s instructions. […] Evaluation and quantification was performed with the compass software (6.2.0, Protein Simple). […]
For the cell viability assay the automated pipetting robot system ASSIST PLUS (Model# 4505, Integra Biosciences, Bibertal, Germany) was used. […] The toxicity of compounds was determined after 72 h using the CellTiter-Glo 2.0 Cell Viability Assay (Promega, Madison, WI, USA, #G9242) according to the manufacturer´s protocol. Subsequently, the luminescence was measured using a Tecan Spark (Tecan Group AG, Maennedorf, Swiss) and the half maximal effective concentration (EC50) was determined by plotting dose response curves and nonlinear regression with GraphPad Prism (GraphPad Software, San […]

O=C(CCCCCCNC(=O)c1ccc(N(C(=O)CCl)C(C(=O)NCc2ccccc2)c2ccc(Cl)c(Cl)c2)cc1)NO (stereo not shown) [Compound 2]
reduction of HDAC6 protein levels: significant reduction of HDAC6 protein levels

O=CN(CCCCCCCCCCCC(=O)Nc1ccc(C(=O)NCCCCCCC(=O)NO)cc1)C(C(=O)NCc1ccccc1)c1ccc(Cl)c(Cl)c1 (stereo not shown) [Compound 1j-nc]
effect on HDAC6 protein levels (14 h): not able to affect the protein levels of HDAC1 and 6

O=C(CCCCCCNC(=O)c1ccc(NC(=O)CCCCCCCCCCCN(C(=O)CCl)C(C(=O)NCc2ccccc2)c2ccc(Cl)c(Cl)c2)cc1)NO (stereo not shown) [Compound 1j]
reduction of HDAC6 protein levels: significant reduction of HDAC6 protein levels | time dependent degradation of HDAC6 (after 6 h): significant degradation
